From ChEMBL document CHEMBL1134801, “Dibasic inhibitors of human mast cell tryptase. Part 3: identification of a series of potent and selective inhibitors containing the benzamidine functionality” (Bioorg Med Chem Lett, 2001)
pKi: −log10 of the molar value.

Key:
[1] = target: Plasminogen (Homo sapiens, UniProt P00747); assay: Inhibition plasmin in human mast cells; type: cell-based
[2] = target: Prothrombin (Homo sapiens, UniProt P00734); assay: Inhibition of thrombin in human mast cells; type: cell-based
[3] = target: Trypsin (Homo sapiens, UniProt P07477+P07478+P35030); assay: Inhibition of trypsin in human mast cells; type: cell-based
[4] = target: Tryptase (Homo sapiens, UniProt Q9BZJ3+Q15661+Q9NRR2); assay: Inhibition of Tryptase in human mast cells; type: cell-based
[5] = Michaelis-Menten constant was determined for the compound after incubation with plasma amine oxidase; type: ADME, cell-free

Chain of Plasminogen (P00747 97-580 limits assumed): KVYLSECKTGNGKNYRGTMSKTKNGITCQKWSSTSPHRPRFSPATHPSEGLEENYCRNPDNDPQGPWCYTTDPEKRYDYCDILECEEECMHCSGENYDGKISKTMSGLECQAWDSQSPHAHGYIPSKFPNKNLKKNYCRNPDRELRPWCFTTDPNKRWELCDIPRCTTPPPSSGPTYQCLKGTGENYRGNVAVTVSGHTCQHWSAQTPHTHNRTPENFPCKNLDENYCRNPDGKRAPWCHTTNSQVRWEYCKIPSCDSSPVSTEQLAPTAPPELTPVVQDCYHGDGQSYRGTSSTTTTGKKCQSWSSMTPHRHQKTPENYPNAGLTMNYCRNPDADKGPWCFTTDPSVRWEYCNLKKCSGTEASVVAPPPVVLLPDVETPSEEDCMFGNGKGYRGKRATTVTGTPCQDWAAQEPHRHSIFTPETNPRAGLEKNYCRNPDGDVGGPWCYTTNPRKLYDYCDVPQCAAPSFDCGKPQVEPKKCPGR
Chain of Plasminogen (P00747 581-810 limits assumed): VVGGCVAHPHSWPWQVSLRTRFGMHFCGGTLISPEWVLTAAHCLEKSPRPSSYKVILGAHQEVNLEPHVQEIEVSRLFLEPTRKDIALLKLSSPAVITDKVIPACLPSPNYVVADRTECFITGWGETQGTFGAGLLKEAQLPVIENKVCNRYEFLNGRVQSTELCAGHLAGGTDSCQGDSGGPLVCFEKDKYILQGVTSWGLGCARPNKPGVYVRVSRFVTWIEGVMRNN

## N=C(N)c1ccc(S(=O)(=O)NCC2CCN(C(=O)O[C@H]3CCC[C@@H](OC(=O)N4CCN(C(=O)NCCC5CCNCC5)CC4)CCC3)CC2)cc1
[1]
  pKi: < 3.00
[2]
  pKi: < 3.00
[3]
  Ki: 16.8 µM
[4]
  Ki: 0.028 µM

## N=C(N)c1ccc(CC(=O)N2CCN(C(=O)O[C@H]3CCC[C@@H](OC(=O)N4CCN(C(=O)NCCC5CCNCC5)CC4)CCC3)CC2)cc1
[1]
  pKi: < 3.00
[2]
  pKi: 4.03
[3]
  Ki: 63.1 µM
[4]
  Ki: 0.0067 µM

## COC(=O)NC(=N)c1ccc(CNC(=O)N2CCN(C(=O)O[C@H]3CCC[C@@H](OC(=O)N4CCN(C(=O)NCCC5CCNCC5)CC4)CCC3)CC2)cc1
[1]
  pKi: < 3.00
[2]
  pKi: 3.25
[3]
  Ki: 554 µM
[4]
  Ki: 0.0406 µM

## NCC1CCN(C(=O)NCCCCNC(=O)OCc2ccc(COC(=O)NCCCCNC(=O)N3CCC(CN)CC3)cc2)CC1
[1]
  pKi: < 3.00
[2]
  pKi: < 3.00
[3]
  Ki: > 1000 µM
[4]
  Ki: 0.112 µM

## N=C(N)c1ccc(C(=O)NCC2CCN(C(=O)O[C@H]3CCC[C@@H](OC(=O)N4CCN(C(=O)NCCC5CCNCC5)CC4)CCC3)CC2)cc1
[1]
  pKi: 3.55
[2]
  pKi: 4.39
[3]
  Ki: 38.8 µM
[4]
  Ki: 0.016 µM

## N=C(N)c1ccc(C(=O)NCC2CCN(C(=O)OCc3ccc(COC(=O)N4CCC(CNC(=O)c5ccc(C(=N)N)cc5)CC4)cc3)CC2)cc1
[1]
  pKi: 8.22
[2]
  pKi: 4.37
[3]
  Ki: 4.4 µM

## N=C(N)N1CCC(CNC(=O)CNC(=O)OCc2ccc(COC(=O)NCC(=O)NCC3CCN(C(=N)N)CC3)cc2)CC1
[1]
  pKi: < 3.00
[2]
  pKi: 3.41
[3]
  Ki: 466 µM
[4]
  Ki: 0.155 µM

## N=C(N)c1ccc(CNC(=O)N2CCN(C(=O)O[C@H]3CCC[C@@H](OC(=O)N4CCN(C(=O)NCCC5CCNCC5)CC4)CCC3)CC2)cc1
[1]
  pKi: 3.54
[2]
  pKi: 3.95
[3]
  Ki: 47.2 µM
[4]
  Ki: 0.00091 µM

## N=C(N)c1ccc(CNC(=O)N2CCN(C(=O)O[C@H]3CCC[C@@H](OC(=O)N4CCN(C(=O)CCCC5CCNCC5)CC4)CCC3)CC2)cc1
[1]
  pKi: 3.51
[2]
  pKi: 3.99
[3]
  Ki: 52.1 µM
[4]
  Ki: 0.00112 µM

## N=C(N)N1CCC(CCNC(=O)CNC(=O)OCc2ccc(COC(=O)NCC(=O)NCCC3CCN(C(=N)N)CC3)cc2)CC1
[1]
  pKi: < 3.00
[2]
  pKi: 3.37
[3]
  Ki: > 1000 µM
[4]
  Ki: 0.11 µM

## N=C(N)c1ccc(C(=O)NCC2CCN(C(=O)O[C@H]3CCC[C@@H](OC(=O)N4CCC(CNC(=O)c5ccc(C(=N)N)cc5)CC4)CCC3)CC2)cc1
[1]
  pKi: 4.21
[2]
  pKi: 4.68
[3]
  Ki: 4.67 µM
[4]
  Ki: 0.00085 µM

## N=C(N)c1ccc(C(=O)NCC2CCN(C(=O)O[C@H]3CCC[C@@H](OC(=O)N4CCN(C(=O)CCCC5CCNCC5)CC4)CCC3)CC2)cc1
[1]
  pKi: 3.49
[2]
  pKi: 4.50
[3]
  Ki: 37.4 µM
[4]
  Ki: 0.0164 µM

## N=C(N)c1ccc(CNC(=O)N2CCN(C(=O)O[C@H]3CCC[C@@H](OC(=O)N4CCN(C(=O)NCc5ccc(C(=N)N)cc5)CC4)CCC3)CC2)cc1
[3]
  Ki: 25 µM
[4]
  Ki: 0.0087 µM

## NCC1CCN(C(=O)NCC2CCN(C(=O)OCc3ccc(COC(=O)N4CCC(CNC(=O)N5CCC(CN)CC5)CC4)cc3)CC2)CC1
[5]
  Vmax / Km: 1870
[1]
  pKi: < 3.00
[2]
  pKi: < 3.00
[3]
  Ki: 515 µM
[4]
  Ki: 0.024 µM

## N=C(N)c1ccc(NC(=O)CC2CCN(C(=O)O[C@H]3CCC[C@@H](OC(=O)N4CCN(C(=O)NCCC5CCNCC5)CC4)CCC3)CC2)cc1
[1]
  pKi: 3.53
[2]
  pKi: 4.28
[3]
  Ki: 21.1 µM
[4]
  Ki: 0.0089 µM
